Assay results: PubChem BioAssay AID330 (DTP/NCI, 2004)
Several values for one entry are separate records, joined by “and”; a condition that tells them apart may be missing. Equal values may be shown once. Inconclusive results and toxic doses are left out. The calls were made as follows: active = survival T/C of 150% or more; inactive = T/C below 125% in these data.

System: P388 leukemia ip, CD2F1 mice, survival T/C
Experiment: NCI In Vivo Anticancer Drug Screen. Data for tumor model P388 Leukemia (intraperitoneal) in CD2F1 (CDF1) mice
Conditions: endpoint: median survival time, higher = longer survival
In short: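 Mice carrying the transplanted tumor received test compound or vehicle. Survival was recorded in each group, and the value is the treated-group measurement divided by that of the vehicle-treated control group.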

[1] = dose: 50.0 mg/kg/injection, schedule: Q01DX009 (ip), vehicle: saline with Tween-80
[2] = dose: 50.0 mg/kg/injection, schedule: Q01DX005 (ip), vehicle: Klucel (hydroxypropylcellulose) (HPC)
[3] = dose: 100.0 mg/kg/injection, schedule: Q01DX005 (ip), vehicle: Klucel (hydroxypropylcellulose) (HPC)
[4] = dose: 200.0 mg/kg/injection, schedule: Q01DX005 (ip), vehicle: Klucel (hydroxypropylcellulose) (HPC)
[5] = dose: 100.0 mg/kg/injection, schedule: Q01DX001 (ip), vehicle: Klucel (hydroxypropylcellulose) (HPC)
[6] = dose: 200.0 mg/kg/injection, schedule: Q01DX001 (ip), vehicle: Klucel (hydroxypropylcellulose) (HPC)
[7] = dose: 400.0 mg/kg/injection, schedule: Q01DX001 (ip), vehicle: Klucel (hydroxypropylcellulose) (HPC)
[8] = dose: 60.0 mg/kg/injection, schedule: Q01DX005 (ip), vehicle: Klucel (hydroxypropylcellulose) (HPC)
[9] = dose: 120.0 mg/kg/injection, schedule: Q01DX005 (ip), vehicle: Klucel (hydroxypropylcellulose) (HPC)
[10] = dose: 240.0 mg/kg/injection, schedule: Q01DX005 (ip), vehicle: Klucel (hydroxypropylcellulose) (HPC)
[11] = dose: 50.0 mg/kg/injection, schedule: Q01DX005 (ip), vehicle: saline with Tween-80
[12] = dose: 100.0 mg/kg/injection, schedule: Q01DX005 (ip), vehicle: saline with Tween-80
[13] = dose: 200.0 mg/kg/injection, schedule: Q01DX005 (ip), vehicle: saline with Tween-80

Measured: T/C

N#CC1=C(C#N)C(=O)c2ccccc2C1=O
inactive: dose: 25.0 mg/kg/injection, schedule: Q01DX009 (ip), vehicle: saline with Tween-80 104 % of control | [1] 104 % of control

Nc1cc(=O)[nH]c(=S)n1-c1ccc(Br)cn1
inactive: dose: 100.0 mg/kg/injection, schedule: Q01DX001 (ip), vehicle: saline with Tween-80 90 % of control | dose: 200.0 mg/kg/injection, schedule: Q01DX001 (ip), vehicle: saline with Tween-80 100 % of control | dose: 400.0 mg/kg/injection, schedule: Q01DX001 (ip), vehicle: saline with Tween-80 90 % of control

Cc1c[n+]2ccccc2n1C
inactive: dose: 1.56 mg/kg/injection, schedule: Q01DX009 (ip), vehicle: saline 98 % of control | dose: 3.13 mg/kg/injection, schedule: Q01DX009 (ip), vehicle: saline 95 % of control | dose: 6.25 mg/kg/injection, schedule: Q01DX009 (ip), vehicle: saline 89 % of control

CCOC(=O)c1ccc(-n2c(C)nc3cc(Cl)ccc3c2=O)cc1
inactive: [1] 104 % of control | dose: 100.0 mg/kg/injection, schedule: Q01DX009 (ip), vehicle: saline with Tween-80 98 % of control | dose: 200.0 mg/kg/injection, schedule: Q01DX009 (ip), vehicle: saline with Tween-80 98 % of control

CCC1CC(C)C(O)/C=C/C=C/CC(C)OC(=O)CC(O)C(OC)C1OC1OC(C)CC(O)(C(C)=O)C1O (centres undefined)
inactive: dose: 25.0 mg/kg/injection, schedule: Q01DX005 (ip), vehicle: Klucel (hydroxypropylcellulose) (HPC) 104 % of control | [2] 104 % of control | [3] 102 % of control | [4] 101 % of control

CCN(/C=N/N(C)S(C)(=O)=O)c1ccccc1
inactive: [2] 104 % of control | [3] 116 % of control | [4] 118 % of control

O=C(CC(c1ccccc1)C(Sc1ccccc1)(Sc1ccccc1)Sc1ccccc1)c1ccccc1 (centres undefined)
inactive: dose: 25.0 mg/kg/injection, schedule: Q01DX009 (ip), vehicle: Klucel (hydroxypropylcellulose) (HPC) 100 % of control | dose: 50.0 mg/kg/injection, schedule: Q01DX009 (ip), vehicle: Klucel (hydroxypropylcellulose) (HPC) 100 % of control | dose: 100.0 mg/kg/injection, schedule: Q01DX009 (ip), vehicle: Klucel (hydroxypropylcellulose) (HPC) 100 % of control and 105 % of control

COc1cc(Br)c(C(=O)N2CCCc3ccccc32)cc1OC
inactive: dose: 12.5 mg/kg/injection, schedule: Q01DX009 (ip), vehicle: other 101 % of control | dose: 25.0 mg/kg/injection, schedule: Q01DX009 (ip), vehicle: other 94 % of control | dose: 50.0 mg/kg/injection, schedule: Q01DX009 (ip), vehicle: other 91 % of control | dose: 100.0 mg/kg/injection, schedule: Q01DX009 (ip), vehicle: other 91 % of control | dose: 200.0 mg/kg/injection, schedule: Q01DX009 (ip), vehicle: other 94 % of control

CCOC(=O)c1cc2c(nn3c(C)cccc23)n(CC)c1=N
inactive: dose: 3.12 mg/kg/injection, schedule: Q01DX001 (ip), vehicle: saline 100 % of control and 101 % of control | dose: 6.25 mg/kg/injection, schedule: Q01DX001 (ip), vehicle: saline 101 % of control and 105 % of control | dose: 12.5 mg/kg/injection, schedule: Q01DX001 (ip), vehicle: saline 100 % of control and 98 % of control | dose: 25.0 mg/kg/injection, schedule: Q01DX001 (ip), vehicle: saline 103 % of control and 93 % of control

CCOC(=O)C1C[S][Sn]2([NH]1)[NH]C(C(=O)OCC)C[S]2 (centres undefined)
inactive: [2] 99 % of control | [3] 106 % of control | [4] 101 % of control

OCC(O)COCCCCCCCCCCCCCC1C=CCC1 (centres undefined)
inactive: dose: 100.0 mg/kg/injection, schedule: Q04DX003 (ip), vehicle: saline 95 % of control | dose: 200.0 mg/kg/injection, schedule: Q04DX003 (ip), vehicle: saline 89 % of control | dose: 400.0 mg/kg/injection, schedule: Q04DX003 (ip), vehicle: saline 96 % of control

CCOCCC(N=NC(=S)NNC)c1ccccc1 (centres undefined)
inactive: dose: 100.0 mg/kg/injection, schedule: Q01DX001 (ip), vehicle: saline 100 % of control | dose: 200.0 mg/kg/injection, schedule: Q01DX001 (ip), vehicle: saline 94 % of control | dose: 400.0 mg/kg/injection, schedule: Q01DX001 (ip), vehicle: saline 93 % of control

O=C1Cc2ccccc2C2CC12 (centres undefined)
inactive: [5] 98 % of control | [6] 113 % of control | [7] 111 % of control

[Cu+2].c1nn[nH]n1
inactive: dose: 12.5 mg/kg/injection, schedule: Q04DX003 (ip), vehicle: Klucel (hydroxypropylcellulose) (HPC) 93 % of control | dose: 25.0 mg/kg/injection, schedule: Q04DX003 (ip), vehicle: Klucel (hydroxypropylcellulose) (HPC) 97 % of control | dose: 50.0 mg/kg/injection, schedule: Q04DX003 (ip), vehicle: Klucel (hydroxypropylcellulose) (HPC) 95 % of control

C[N+]1(C)N=C([O-])N(c2ccccc2F)C1=O
inactive: dose: 100.0 mg/kg/injection, schedule: Q04DX003 (ip), vehicle: Klucel (hydroxypropylcellulose) (HPC) 99 % of control | dose: 200.0 mg/kg/injection, schedule: Q04DX003 (ip), vehicle: Klucel (hydroxypropylcellulose) (HPC) 91 % of control

O=C(N/N=C/c1cccc(O)c1)C(=O)N/N=C/c1cccc(O)c1
inactive: dose: 50.0 mg/kg/injection, schedule: Q01DX009 (ip), vehicle: water 101 % of control | dose: 100.0 mg/kg/injection, schedule: Q01DX009 (ip), vehicle: water 100 % of control | dose: 200.0 mg/kg/injection, schedule: Q01DX009 (ip), vehicle: water 102 % of control

CCOc1nc(N)nc(C)c1N=Nc1cccc([N+](=O)[O-])c1
inactive: [8] 100 % of control | [9] 94 % of control | [10] 103 % of control

CS/C(=C/c1ccc2ccccc2[n+]1C)N1CCSCC1
inactive: dose: 1.56 mg/kg/injection, schedule: Q01DX005 (ip), vehicle: saline with Tween-80 108 % of control | dose: 3.13 mg/kg/injection, schedule: Q01DX005 (ip), vehicle: saline with Tween-80 113 % of control | dose: 6.25 mg/kg/injection, schedule: Q01DX005 (ip), vehicle: saline with Tween-80 113 % of control

CCB1OCC(C2OC(=O)C3OB(CC)OC32)O1 (centres undefined)
inactive: dose: 50.0 mg/kg/injection, schedule: Q01DX005 (ip), vehicle: saline + Tween-80 + alcohol 101 % of control | dose: 100.0 mg/kg/injection, schedule: Q01DX005 (ip), vehicle: saline + Tween-80 + alcohol 101 % of control | dose: 200.0 mg/kg/injection, schedule: Q01DX005 (ip), vehicle: saline + Tween-80 + alcohol 95 % of control

C(=NCCN=Cc1cc2c(c3ccccc13)CCCC2)c1cc2c(c3ccccc13)CCCC2
inactive: [11] 96 % of control | [12] 91 % of control | [13] 88 % of control

CN=C1OC2(c3ccccc3)C3=C(OC(=NC)N2C)C(=O)OC3(c2ccccc2)N1C (centres undefined)
inactive: [8] 98 % of control | [9] 95 % of control | [10] 91 % of control

CC1CN(Cc2ccccc2)CCC1N1CCCC1 (centres undefined)
inactive: [11] 111 % of control | [12] 107 % of control | [13] 109 % of control

O=[N+]([O-])c1ccsc1SSc1sccc1[N+](=O)[O-]
inactive: dose: 25.0 mg/kg/injection, schedule: Q04DX003 (ip), vehicle: saline with Tween-80 102 % of control | dose: 50.0 mg/kg/injection, schedule: Q04DX003 (ip), vehicle: saline with Tween-80 102 % of control | [5] 102 % of control | dose: 100.0 mg/kg/injection, schedule: Q04DX003 (ip), vehicle: saline with Tween-80 100 % of control | [6] 102 % of control | [7] 96 % of control
